Consider eight molecules from patent publication US6506789B2, “Methods for the treatment of itching comprising administering PGD2 receptor antagonist” (Shionogi & Co., Ltd., priority 1998, dated 2003).

The target of one assay is T1, PGD2 receptor (Homo sapiens, UniProt Q13258).
T1 construct: The platelets mere homogenized using a homogenizer (Ultra-Turrax) followed by centrifugation 3 times at 20,000 rpm, 10 min at 4° C. to obtain a platelet membrane fraction; from tissue; host or cells: human platelets from venous blood of healthy volunteers (membrane fraction)
T1 sequence (Q13258 1-359): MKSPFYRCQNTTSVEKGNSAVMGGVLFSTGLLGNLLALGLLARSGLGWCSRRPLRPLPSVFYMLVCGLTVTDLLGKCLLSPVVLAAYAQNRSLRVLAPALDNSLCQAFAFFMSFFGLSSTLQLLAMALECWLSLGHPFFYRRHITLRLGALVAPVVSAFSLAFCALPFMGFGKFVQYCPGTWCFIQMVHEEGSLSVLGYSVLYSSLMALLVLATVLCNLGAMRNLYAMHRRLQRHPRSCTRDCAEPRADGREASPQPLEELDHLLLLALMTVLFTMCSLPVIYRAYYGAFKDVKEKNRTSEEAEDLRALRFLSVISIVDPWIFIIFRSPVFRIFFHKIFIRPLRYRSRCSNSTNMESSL
Description: Binding to PGD2 receptor ([3H]PGD2, human platelet membrane fraction). The conditions noted are these: 5 nM [3H]PGD2, 4° C., 90 min, read-out: IC50 (concentration required for 50% inhibition of [3H]PGD2 binding). Here is the method:
(1) Preparation of Human Platelet Membrane Fraction
Blood sample was obtained using a plastic syringe containing 3.8% sodium citrate from the vein of healthy volunteers (adult male and female), put into a plastic test tube and mixed gently by rotation. The sample was then centrifuged at 1800 rpm, 10 min at room temperature and the supernatant containing PRP (platelet-rich plasma) was collected. The PRP was re-centrifuged at 2300 rpm, 22 min at room temperature to obtain platelets. The platelets mere homogenized using a homogenizer (Ultra-Turrax) followed by centrifugation 3 times at 20,000 rpm, 10 min at 4° C. to obtain a platelet membrane fraction. After protein determination, the membrane fraction was adjusted to 2 mg/ml and preserved in a refrigerator at −80° C. until use.
(2) Binding to PGD2 Receptor
To a binding-reaction solution (50 mM Tris/HCl, pH 7.4, 5 mM MgCl2) (0.2 ml) were added the human platelet membrane fraction (0.1 mg) and 5 nM [^3H]PGD2 (115 Ci/mmol). After reacting at 4° C. for 90 min, the mixture was filtered through a glass fiber filter paper and washed several times with cooled saline, to measure the radioactivity retained on the filter paper. The specific binding was calculated by subtracting the non-specific binding (the binding in the presence of 10 μM PGD2) from the total binding. The inhibitory activity of each compound was expressed as the concentration required for 50% inhibition (IC50), which was determined by depicting a substitution curve by plotting the binding ratio (%) in the presence of each compound, where the binding ratio in the absence of a test compound is 100%.

The test system of another assay is PGD2-induced itching. To be noted: guinea pig; J. Pharmacol. Exp. Ther., 279, 137-142, 1996; cited from earlier work.
Assay [1] concerns itching caused by antigens. The conditions noted are these: J. Pharmacol. Exp. Ther., 279, 137-142, 1996; cited from earlier work.
For assay [2], the system named is Compound 48/80-induced scratching behavior. Kind of assay: Mouse pruritus model: compound 48/80-induced scratching behavior. Format: in vivo. Here is the method:
Investigation on Itch-Related Scratching Behavior in Mouse Pruritus Model: Effect on Compound 48/80-Induced Scratching Behavior Compound 48/80 (10 μg/site, Sigma), a non-immunological mast cell activator, was dissolved in physiological saline and subcutaneously injected into the rostral part of the back of female C57BL mice (8-12 weeks of age, Charles River Japan Inc.). […] Mice usually scratched several times successively in one behavior and a series of scratching was counted as one incidence. Compound Treatment Compound (IA-a-5), suspended in 0.5% methylcellulose, was orally administered 1 hour before the injection of compound 48/80 at a dose of 300 mg/kg. As a control, mice were treated with 0.5% methlycellulose. Results were shown in Table 16. *: P<0.05 versus control (Wilcoxon test).

For assay [3], the system named is Antigen-induced scratching behavior. Description: Mouse pruritus model: antigen-induced scratching behavior. Type of assay: in vivo. The conditions noted are these: female C57BL mice, observed 15 minutes, n = 7, control 51.6 ± 5.3. Here is the method:
Investigation on Itch-Related Scratching Behavior in Mouse Pruritus Model: Effect on Antigen-Induced Scratching Behavior 50 μl of diluted anti-benzylpenicilloyl (BPO) IgE monoclonal antibody was intradermally injected to the rostral part of the back skin of female C57BL (Table 17, 8-12 weeks of age, Charles River Japan Inc.) or male DS-Nh (Table 18, 7-8 weeks of age, Aburahi Laboratories, Shionogi & Co., Ltd.) mice. Twenty-four hours later, scratching behavior was induced by intravenously injection of physiological saline containing 1 mg of BPO-guinea pig serum albumin. […] In Table 17, the compound was treated in the same manner described in above 1). In Table 18, the compound were dissolved in physiological saline and intraperitoneally injected 30 minutes before antigen challenge. *: P<0.05, **: P<0.01 versus control (Dunnett's test).

Marks after values point to notes of the source that are not given here.

As for `CC1(C)[C@H]2C[C@H](C/C=C\CCCC(=O)O)[C@@H](NC(=O)c3csc4ccc(F)cc34)[C@@H]1C2` [IA-a-11], the IC50 at PGD2 receptor worked out at 0.27 nM.

As to `CC1(C)[C@H]2C[C@@H](C/C=C/CCCC(=O)O)[C@@H](NC(=O)c3csc4ccc(O)cc34)[C@@H]1C2` [IA-c-2], on PGD2 receptor, the IC50 worked out at 1 nM. Take `CC1(C)[C@H]2C[C@H](NC(=O)c3csc4ccc(F)cc34)[C@@H](C/C=C\CCCC(=O)O)[C@@H]1C2` [IB-a′-2]: at PGD2 receptor, the IC50 turned out to be 37 nM. With `CC1(C)[C@H]2C[C@H](C/C=C/CCCC(=O)O)[C@@H](NC(=O)c3csc4ccc(O)cc34)[C@@H]1C2` [IA-a-17, (5E)-7-[(1R,2R,3S,5S)-2-(5-hydroxybenzo[b]thiophen-3-yl-carbonylamino)-6,6-dimethylbicyclo[3.1.1]hept-3-yl]-5-heptenoic Acid], the IC50 on PGD2 receptor was 32 nM.

With `CC1(C)[C@H]2C[C@@H](C/C=C\CCCC(=O)O)[C@@H](NC(=O)c3csc4ccc(O)cc34)[C@@H]1C2` [IA-c-1], the IC50 at PGD2 receptor stood at 28 nM. For `O=C(O)CCCCCCC1C(=O)N(Cc2ccccc2)C(=O)N1NCC(O)C1CCCCC1` (stereo not drawn) [BWA868C], in the assay with PGD2-induced itching, the “inhibition of itching induced by instillation of PGD2” value was “inhibited”. In addition, the “inhibition of itching caused by antigens” value in assay [1] is “can not inhibit”. Take `CC1(C)[C@H]2C[C@H](C/C=C/CCCC(=O)O)[C@@H](NC(=O)c3csc4ccc(O)cc34)[C@@H]1C2` (single isomer, unassigned) [IA-a-18]: on PGD2 receptor, the IC50 came to 1.2 nM. For `CC1(C)[C@H]2C[C@H](C/C=C\CCCC(=O)O)[C@@H](NC(=O)c3csc4ccc(O)cc34)[C@@H]1C2` [IA-a-5, (5Z)-7-[(1R,2R,3S,5S)-2-(5-hydroxybenzo[b]thiophen-3-yl-carbonylamino)-6,6-dimethylbicyclo[3.1.1]hept-3-yl]-5-heptenoic acid], the “scratching caused by skin itching derived from the activation of mast cell, compared with the control group” value in assay [2] (Experiment 2, summary in words) is on record as “reduced”. The “Mean ± S.E. (Number of scratching)” value is recorded as 81.8 ± 17.9* in assay [2] (female C57BL mice, 300 mg/kg orally 1 hour before compound 48/80, observed 30 minutes, n = 10, control 122.2 ± 12.7); 48.4 ± 12.4 in assay [3] (100 mg/kg orally); 19.6 ± 6.5* in assay [3] (300 mg/kg orally).
